In patent US5814631A, “Quinazoline derivatives and applications thereof” (Suntory Limited, priority 1995, dated 1998):

target: T1, human heart chymase (Homo sapiens, UniProt P23946); experiment: biochemical; conditions: Chymase inhibitive activity (IC50), Ang I substrate, 37° C., 30 min, pH 7.5
T1 sequence (P23946 22-247): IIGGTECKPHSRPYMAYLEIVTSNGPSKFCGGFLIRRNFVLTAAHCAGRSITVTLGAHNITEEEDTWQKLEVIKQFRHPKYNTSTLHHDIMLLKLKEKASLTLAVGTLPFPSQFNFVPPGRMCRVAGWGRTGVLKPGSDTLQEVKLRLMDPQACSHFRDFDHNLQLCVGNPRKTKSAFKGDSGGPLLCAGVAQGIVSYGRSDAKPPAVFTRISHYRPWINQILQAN
Experimental: That is, to 10 μl of a 20 mM trisphosphate buffer (pH 7.5) containing 2MKCl were added 10 μl of purified chymase and 5 μl of a dimethylsulfoxide (hereinafter referred to as DMSO) solution of the test sample. The mixture was preincubated at 37° C. for 10 minutes, then 25 μl of a 1 mM Ang I solution was added and the mixture preincubated at 37° C. for 30 minutes. Next, 50 μl of 30% acetic acid was added to stop the enzymatic reaction. At the same time, a blind test was performed by adding, instead of the test sample solution, 5 μl of DMSO and performing the same reaction.
The reacted solution was subjected to high performance liquid chromatography using Develosil ODS-5 (made by Nomura Kagaku, .phi.4.6 mm×150 mm) and developed at a flow rate of 2.0 ml/min in 0.05% TFA by a straight concentration gradient raising the acetonitrile from 0% to 60% over 10 minutes. This was monitored by the absorbance at 210 nm and the peaks identified by comparison with standard samples of Ang I and Ang II. The peak areas were measured by an integrating meter to quantitatively analyze the Ang I and Ang II and calculate the chymase activity.

Row | SMILES | IC50 [nM]
1 | N[C@@H](CC(=O)O)C(=O)NCc1ccc(NC(=O)Cn2c(=O)n(S(=O)(=O)c3ccc(Cl)cc3)c(=O)c3ccc(Cl)cc32)cc1 [Example 48, [7-chloro-3-(4-chlorobenzenesulfonyl)-2,4(1H,3H)-quinazolinedion-1-yl]-N-(4-α-L-aspartylaminomethylphenyl)acetamide] | 500
2 | O=C(Cn1c(=O)n(S(=O)(=O)c2ccc(Cl)cc2)c(=O)c2ccc(Cl)cc21)Nc1cccc2ncccc12 [Example 91, [7-chloro-3-(4-chlorobenzenesulfonyl)-2,4(1H,3H)-quinazolinedion-1-yl]-N-(5-quinolyl)acetamide] | 180
3 | Cc1ccc(S(=O)(=O)n2c(=O)c3ccc(Cl)cc3n(CC(=O)Nc3cccnc3)c2=O)cc1 [Example 94, [7-chloro-3-(4-methylbenzenesulfonyl)-2,4(1H,3H)-quinazolinedion-1-yl]-N-(3-pyridyl)acetamide] | 170
4 | C[n+]1ccc(NC(=O)Cn2c(=O)n(S(=O)(=O)c3ccc(Cl)cc3)c(=O)c3ccc(Cl)cc32)cc1 [Example 58, 4-{[7-chloro-3-(4-chlorobenzenesulfonyl)-2,4(1H,3H)-quinazolinedion-1-yl]acetylamino}-N-methylpyridinium iodide] | 130
5 | O=c1[nH]c2cc(Cl)ccc2c(=O)n1S(=O)(=O)c1ccc(C(F)(F)F)cc1 [Example 136, 7-chloro-3-(4-trifluoromethylbenzenesulfonyl)-2,4(1H,3H)-quinazolinedione] | 460
6 | O=C(Cn1c(=O)n(S(=O)(=O)c2ccc(Cl)cc2)c(=O)c2ccc(Cl)cc21)Nc1cccnc1 [Example 53, [7-chloro-3-(4-chlorobenzenesulfonyl)-2,4(1H,3H)-quinazolinedion-1-yl]-N-(3-pyridyl)acetamide] | 50
7 | CC[n+]1cccc(NC(=O)Cn2c(=O)n(S(=O)(=O)c3ccc(OC)cc3)c(=O)c3ccc(Cl)cc32)c1 [Example 90] | 130
8 | N[C@@H](Cc1ccc(NC(=O)Cn2c(=O)n(S(=O)(=O)c3ccc(Cl)cc3)c(=O)c3ccc(Cl)cc32)cc1)C(=O)O [Example 99, [7-chloro-3-(4-chlorobenzenesulfonyl)-2,4(1H,3H)-quinazolinedion-1-yl]-N-(4-L-phenylalaninyl)acetamide] | 210
9 | O=C(Cn1c(=O)n(S(=O)(=O)c2ccc(-c3cc[nH]n3)cc2)c(=O)c2ccc(Cl)cc21)Nc1cccnc1 [Example 121, {7-chloro-3-[4-(3-pyrazolyl)benzenesulfonyl]-2,4(1H,3H)-quinazolinedion-1-yl}-N-(3-pyridlyl)acetamide] | 340
10 | O=c1c2ccc(Cl)cc2n(Cc2cccnc2)c(=O)n1S(=O)(=O)c1ccc(Cl)cc1 [Example 114, 7-chloro-3-(4-chlorobenzenesulfonyl)-1-(3-pyridylmethyl)-2,4(1H,3H)-quinazolinedione] | 46
11 | O=c1[nH]c2cc(Cl)ccc2c(=O)n1S(=O)(=O)c1ccc(Cl)cc1F [Example 134, 7-chloro-3-(4-chloro-2-fluorobenzenesulfonyl)-2,4(1H,3H)-quinazolinedione] | 1800
12 | O=C(Cn1c(=O)n(S(=O)(=O)c2ccc(Cl)cc2)c(=O)c2ccc(Cl)cc21)Nc1cccc(O)c1 [Example 40, [7-chloro-3-(4-chlorobenzenesulfonyl)-2,4(1H,3H)-quinazolinedion-1-yl]-N-(3-hydroxyphenyl)acetamide] | 110
13 | N[C@@H](CC(=O)NCc1cccc(NC(=O)Cn2c(=O)n(S(=O)(=O)c3ccc(Cl)cc3)c(=O)c3ccc(Cl)cc32)c1)C(=O)O [Example 52, [7-chloro-3-(4-chlorobenzenesulfonyl)-2,4(1H,3H)-quinazolinedion-1-yl]-N-(3-β-L-aspartylaminomethylphenyl)acetamide] | 110
14 | O=C(Cn1c(=O)n(S(=O)(=O)c2ccc(Cl)cc2)c(=O)c2ccc(Cl)cc21)Nc1ccc(CN2CCOCC2)cc1 [Example 44, [7-chloro-3-(4-chlorobenzenesulfonyl)-2,4(1H,3H)-quinazolinedion-1-yl]-N-(4-morpholinomethylphenyl)acetamide] | 560
15 | N#Cc1ccc(Cn2c(=O)n(S(=O)(=O)c3ccc(Cl)cc3)c(=O)c3ccc(Cl)cc32)cc1 [Example 60, 7-chloro-3-(4-chlorobenzenesulfonyl)-1-(4-cyanobenzyl)-2,4(1H,3H)-quinazolinedione] | 340
16 | O=C(Cn1c(=O)n(S(=O)(=O)c2ccc(Cl)cc2)c(=O)c2ccc(Cl)cc21)Nc1ccc(Cl)cc1 [Example 140, [7-chloro-3-(4-chlorobenzenesulfonyl)-2,4(1H,3H)-quinazolinedion-1-yl]-N-(4-chlorophenyl)acetamide] | 60
17 | CC(=O)c1ccc(S(=O)(=O)n2c(=O)[nH]c3cc(Cl)ccc3c2=O)cc1 [Example 149, 3-(4-acetylbenzenesulfonyl)-7-chloro-2,4(1H,3H)-quinazolinedione] | 570

Row | SMILES | IC50 [nM]
18 | O=c1c2ccc(Cl)cc2n(Cc2ccccc2)c(=O)n1S(=O)(=O)c1ccc(Cl)cc1 [Example 59, 1-benzyl-7-chloro-3-(4-chlorobenzenesulfonyl)-2,4(1H,3H )-quinazolinedione] | 370
19 | O=C(Cn1c(=O)n(S(=O)(=O)c2ccc(Cl)cc2)c(=O)c2ccc(Cl)cc21)Nc1ccccc1 [Example 38, [7-chloro-3-(4-chlorobenzenesulfonyl)-2,4(1H,3H)-quinazolinedion-1-yl]-N-phenylacetamide] | 63
20 | O=C(Cn1c(=O)n(S(=O)(=O)c2ccc(Cl)cc2)c(=O)c2ccc(Cl)cc21)Nc1ccc(C(=O)O)cc1 [Example 43, [7-chloro-3-(4-chlorobenzenesulfonyl)-2,4(1H,3H)-quinazolinedion-1-yl]-N-(4-carboxyphenyl)-acetamide] | 420
21 | N[C@@H](CC(=O)NCc1ccc(NC(=O)Cn2c(=O)n(S(=O)(=O)c3ccc(Cl)cc3)c(=O)c3ccc(Cl)cc32)cc1)C(=O)O [Example 50, [7-chloro-3-(4-chlorobenzenesulfonyl)-2,4(1H,3H)-quinazolinedion-1-yl]-N-(4-β-L-aspartylaminomethylphenyl)acetamide] | 330
22 | O=C(Cn1c(=O)n(S(=O)(=O)c2ccc(Cl)cc2)c(=O)c2ccc(Cl)cc21)Nc1ccc(N2CCNCC2)cc1 [Example 93, [7-chloro-3-(4-chlorobenzenesulfonyl)-2,4(1H,3H)-quinazolinedion-1-yl]-N-(4-piperazin-1-yl)acetamide] | 390
23 | O=C(Cn1c(=O)n(S(=O)(=O)c2ccc(Cl)cc2)c(=O)c2ccc(Cl)cc21)Nc1ccc2[nH]ccc2c1 [Example 82, [7-chloro-3-(4-chlorobenzenesulfonyl)-2,4(1h,3H)-quinazolinedion-1-yl]-N-(5-indolyl)acetamide] | 51
24 | O=C(Cn1c(=O)n(S(=O)(=O)c2cccnc2)c(=O)c2ccc(Cl)cc21)Nc1cccnc1 [Example 123, [7-chloro-3-(pyridine-3-sulfonyl)-2,4-(1H,3H)-quinazolinedion-1-yl]-N-(3-pyridyl)acetamide] | 580
25 | O=C(Nc1cccnc1)c1cccc(Cn2c(=O)n(S(=O)(=O)c3ccc(Cl)cc3)c(=O)c3ccc(Cl)cc32)c1 [Example 68, 7-chloro-3-(4-chlorobenzenesulfonyl)-1-(3-(3-pyridyl)aminocarbonyl-benzyl)-2,4(1H,3H)-quinazolinedione] | 110
26 | O=C(Cn1c(=O)n(S(=O)(=O)c2ccc(Cl)cc2)c(=O)c2ccc(Cl)cc21)NCc1ccncc1 [Example 81, [7-chloro-3-(4-chlorobenzenesulfonyl)-2,4 (1H,3H)-quinazolinedion-1-yl]-N-(4-picolyl)acetamide] | 220
27 | O=C(Cn1c(=O)n(S(=O)(=O)c2ccc(Cl)cc2)c(=O)c2ccc(Cl)cc21)Nc1ccncn1 [Example 85, [7-chloro-3-(4-chlorobenzenesulfonyl)-2,4(1H,3H)-quinazolinedion-1-yl]-N-(4-pyrimidinyl)acetamide] | 190
28 | O=C(Cn1c(=O)n(S(=O)(=O)c2ccc(Cl)cc2)c(=O)c2ccc(Cl)cc21)NCc1ccccc1 [Example 80, [7-chloro-3-(4-chlorobenzenesulfonyl)-2,4(1H,3H)-quinazolinedion-1-yl]-N-benzylacetamide] | 140
29 | CC(C)(C)OC(=O)C[n+]1cccc(NC(=O)Cn2c(=O)n(S(=O)(=O)c3ccc(Cl)cc3)c(=O)c3ccc(Cl)cc32)c1 [Example 83, 3-{[7-chloro-3-(4-chlorobenzenesulfonyl)-2,4(1H,3H)-quinazolinedion-1-yl]acetylamino}-(N-t-butoxycarbonylmethylpyridinium) bromide] | 38
30 | O=C(O)C[n+]1cccc(NC(=O)Cn2c(=O)n(S(=O)(=O)c3ccc(Cl)cc3)c(=O)c3ccc(Cl)cc32)c1 [Example 84, 3-{[7-chloro-3-(4-chlorobenzenesulfonyl)-2,4(1H,3H)-quinazolinedion-1-yl]acetylamino}-N-carboxymethylpyridinium bromide] | 43
31 | O=C(Cn1c(=O)n(S(=O)(=O)c2ccc(Cl)cc2)c(=O)c2ccc(Cl)cc21)Nc1ccc(C(=O)O)cc1C(=O)O [Example 101, [7-chloro-3-(4-chlorobenzenesulfonyl)-2,4 (1H,3H)-quinazolinedion-1-yl]-N-(2,4-dicarboxylphenyl)acetamide] | 280
32 | O=c1[nH]c2cc(Cl)ccc2c(=O)n1S(=O)(=O)c1ccc(OCCBr)cc1 [Example 145, 7-chloro-3-[4-(2-bromoethyloxy)benzenesulfonyl]-2,4(1H,3H)-quinazolinedione] | 1500
33 | N=C(N)Nc1ccc(Cn2c(=O)n(S(=O)(=O)c3ccc(Cl)cc3)c(=O)c3ccc(Cl)cc32)cc1 [Example 107, 7-chloro-3-(4-chlorobenzenesulfonyl)-1-(4-guanidinobenzyl)-2,4(1H,3H)-quinazolinedione] | 230
34 | O=C(Cn1c(=O)n(S(=O)(=O)c2ccc(Cl)cc2)c(=O)c2ccc(Cl)cc21)Nc1ccc(O)cc1 [Example 39, [7-chloro-3-(4-chlorobenzenesulfonyl)-2,4(1H,3H)-quinazolinedion-1-yl]-N-(4-hydroxyphenyl)acetamide] | 65
